Measurements as given in patent publication US10774068B2, “Composition and methods for inhibiting mammalian sterile 20-like kinase 1” (The Scripps Research Institute, priority 2015, dated 2020).
Where two headings read alike, the source gives them in different places.

How the values were obtained:
MST2 = MST2 (Homo sapiens (Human), UniProt Q13188); test: MST2 biochemical LanthaScreen Eu Kinase Binding Assay
Description: (§1) MST1 and MST2 biochemical LanthaScreen Eu Kinase Binding Assay was based on the binding and displacement of kinase tracer to the kinase of interest. Compounds in 1000×DMSO stock solution was dispensed using automated dispensing system (Labcyte) to 384 well Corning Microplate at 15 nL, 5 uL of Kinase buffer A was added to each well. Plates were shaken and incubated for 1 min to ensure well dissolution of compounds.

MST1 = MST1 (Homo sapiens (Human), UniProt Q13043); test: MST1 biochemical LanthaScreen Eu Kinase Binding Assay
Chain of MST1 (Q13043 whole entry): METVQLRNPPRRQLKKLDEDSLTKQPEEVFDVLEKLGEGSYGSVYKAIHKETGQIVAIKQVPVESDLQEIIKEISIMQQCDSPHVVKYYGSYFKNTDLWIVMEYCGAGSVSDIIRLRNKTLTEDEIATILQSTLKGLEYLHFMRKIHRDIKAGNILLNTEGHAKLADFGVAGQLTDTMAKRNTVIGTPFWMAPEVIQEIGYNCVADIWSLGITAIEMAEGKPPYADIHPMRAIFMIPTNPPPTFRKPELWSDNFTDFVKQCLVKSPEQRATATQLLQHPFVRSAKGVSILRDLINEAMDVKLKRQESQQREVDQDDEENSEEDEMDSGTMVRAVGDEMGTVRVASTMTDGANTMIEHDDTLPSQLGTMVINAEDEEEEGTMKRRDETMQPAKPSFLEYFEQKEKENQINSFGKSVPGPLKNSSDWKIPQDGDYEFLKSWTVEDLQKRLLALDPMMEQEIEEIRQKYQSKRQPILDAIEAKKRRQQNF
Description: as §1

[1] = read-out: Kinase Binding assay-MST1 IC50
[2] = read-out: Kinase Binding assay-MST2 IC50

Chain of MST2 (Q13188 whole entry): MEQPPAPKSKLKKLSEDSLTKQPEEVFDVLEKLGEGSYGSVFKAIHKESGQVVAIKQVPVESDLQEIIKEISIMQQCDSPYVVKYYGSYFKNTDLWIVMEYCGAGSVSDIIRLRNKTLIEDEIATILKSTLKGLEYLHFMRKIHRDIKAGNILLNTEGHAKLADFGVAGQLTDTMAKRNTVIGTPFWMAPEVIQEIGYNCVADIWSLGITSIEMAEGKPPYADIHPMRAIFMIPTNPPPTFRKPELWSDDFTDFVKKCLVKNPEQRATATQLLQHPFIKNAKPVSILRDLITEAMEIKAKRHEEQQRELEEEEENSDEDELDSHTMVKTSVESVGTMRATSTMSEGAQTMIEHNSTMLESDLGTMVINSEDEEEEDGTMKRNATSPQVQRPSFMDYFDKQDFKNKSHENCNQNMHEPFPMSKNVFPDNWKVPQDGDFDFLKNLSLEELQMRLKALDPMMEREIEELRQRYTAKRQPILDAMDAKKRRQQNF

Structure (SMILES): CCOc1cc2ncc(C#N)c(Nc3ccc(OCc4cccc(OC)n4)c(Cl)c3)c2cc1NC(=O)CCCN(C)C [Example 6]
- IC50 (MST2): 0.1 to 1 µM
- IC50 (MST1): 0.1 to 1 µM

Structure (SMILES): CCOc1cc2ncc(C#N)c(Nc3ccc(OCc4cc(C)ccn4)c(Cl)c3)c2cc1NC(=O)CCCN(C)C [Example 10]
- IC50 (MST2): 0.1 to 1 µM
- IC50 (MST1; [1]): < 0.1 µM

Structure (SMILES): CCOc1cc2ncc(C#N)c(Nc3ccc(OCc4ccc(Cl)cn4)c(Cl)c3)c2cc1NC(=O)CCCN(C)C [Example 14]
- IC50 (MST2): 0.1 to 1 µM
- IC50 (MST1): 0.1 to 1 µM

Structure (SMILES): CCOc1cc2ncc(C#N)c(Nc3cc(C)c(OCc4ncccc4C)cc3C)c2cc1NC(=O)/C=C/CN(C)C [Example 94]
- IC50 (MST2; [2]): < 0.1 µM
- IC50 (MST1; [1]): < 0.1 µM

Structure (SMILES): CCOc1cc2ncc(C#N)c(Nc3ccc(OCc4ncccc4C)cc3Br)c2cc1NC(=O)CCCN(C)C [Example 74]
- IC50 (MST2; [2]): < 0.1 µM
- IC50 (MST1; [1]): < 0.1 µM

Structure (SMILES): CCOc1cc2ncc(C#N)c(Nc3ccc(OCc4ncccc4C4CC4)c(Cl)c3)c2cc1NC(=O)CCCN(C)C [Example 44]
- IC50 (MST2): 0.1 to 1 µM
- IC50 (MST1; [1]): 0.1 to 1 µM

Structure (SMILES): CCOc1cc2ncc(C#N)c(Nc3ccc(OCc4cccc(C)n4)c(Cl)c3)c2cc1NC(=O)CCCN(C)C [Example 12]
- IC50 (MST2; [2]): < 0.1 µM
- IC50 (MST1; [1]): < 0.1 µM

Structure (SMILES): CCOc1cc2ncc(C#N)c(Nc3ccc(OCc4ncccc4F)c(Cl)c3)c2cc1NC(=O)CCCN(C)C [Example 16]
- IC50 (MST2; [2]): < 0.1 µM
- IC50 (MST1; [1]): < 0.1 µM

Structure (SMILES): CCOc1cc2ncc(C#N)c(Nc3ccc(OCc4cnc(C)cn4)c(Cl)c3)c2cc1NC(=O)CCCN(C)C [Example 60]
- IC50 (MST1; [1]): 0.1 to 1 µM

Structure (SMILES): CCOc1cc2ncc(C#N)c(Nc3ccc(OCc4cccc(C#N)n4)c(Cl)c3)c2cc1NC(=O)CCCN(C)C [Example 5]
- IC50 (MST2): 0.1 to 1 µM
- IC50 (MST1; [1]): < 0.1 µM

Structure (SMILES): CCOc1cc2ncc(C#N)c(Nc3ccc(OCc4cnc5c(c4)OCCO5)c(Cl)c3)c2cc1NC(=O)CCCN(C)C [Example 43]
- IC50 (MST2): 1 to 10 µM
- IC50 (MST1; [1]): 0.1 to 1 µM

Structure (SMILES): CCOc1cc2ncc(C#N)c(Nc3ccc(OCc4ncccc4C)cc3F)c2cc1NC(=O)CCCN(C)C [Example 23]
- IC50 (MST2; [2]): < 0.1 µM
- IC50 (MST1; [1]): < 0.1 µM

Structure (SMILES): CCOc1cc2ncc(C#N)c(Nc3ccc(OCc4ccccn4)c(Cl)c3)c2cc1NC(=O)CCCN1CCOCC1 [Example 99]
- IC50 (MST2): 0.1 to 1 µM
- IC50 (MST1; [1]): 0.1 to 1 µM

Structure (SMILES): CCOc1cc2ncc(C#N)c(Nc3ccc(OCc4ccccn4)c(C)c3)c2cc1NC(=O)CCCN(C)C [Example 48]
- IC50 (MST1; [1]): 0.1 to 1 µM

Structure (SMILES): CCOc1cc2ncc(C#N)c(Nc3ccccc3)c2cc1NC(C)=O [Example 115, N-(3-cyano-7-ethoxy-4-(phenylamino)quinolin-6-yl)acetamide]
- IC50 (MST1; [1]): 1 to 10 µM

Structure (SMILES): CCOc1cc2ncc(C#N)c(Nc3ccc(NC(C)c4ccccn4)c(Cl)c3)c2cc1NC(=O)CCCN(C)C (stereo not shown) [Example 112]
- IC50 (MST1; [1]): 1 to 10 µM

Structure (SMILES): CCOc1cc2ncc(C#N)c(Nc3ccc(Cl)cc3)c2cc1NC(C)=O [Example 122]
- IC50 (MST1; [1]): 1 to 10 µM

Structure (SMILES): CCOc1cc2ncc(C#N)c(Nc3ccc(OCc4cccc(C(F)(F)F)n4)c(Cl)c3)c2cc1NC(=O)CCCN(C)C [Example 54]
- IC50 (MST1; [1]): 0.1 to 1 µM

Structure (SMILES): CCOc1cc2ncc(C#N)c(Nc3ccc(OCc4cnc5cccnc5c4)c(Cl)c3)c2cc1NC(=O)CCCN(C)C [Example 63]
- IC50 (MST1; [1]): 0.1 to 1 µM

Structure (SMILES): CCOc1cc2ncc(C#N)c(Nc3ccc(NCc4ccccn4)c(Cl)c3)c2cc1NC(=O)CCCN(C)C [Example 111, N-(4-(3-chloro-4-(pyridin-2-ylmethylamino)phenylamino)-3-cyano-7-ethoxyquinolin-6-yl)-4-(dimethylamino)butanamide]
- IC50 (MST1; [1]): 0.1 to 1 µM

Structure (SMILES): CCOc1cc2ncc(C#N)c(Nc3ccc(OCc4ccc(OC)cn4)c(Cl)c3)c2cc1NC(=O)CCCN(C)C [Example 56]
- IC50 (MST1; [1]): 0.1 to 1 µM

Structure (SMILES): CCOc1cc2ncc(C#N)c(Nc3ccc(OC)cc3)c2cc1NC(C)=O [Example 121]
- IC50 (MST1; [1]): 0.1 to 1 µM

Structure (SMILES): CCOc1cc2ncc(C#N)c(Nc3ccc(OC)c(Cl)c3)c2cc1NC(C)=O [Example 136]
- IC50 (MST1; [1]): 0.1 to 1 µM

Structure (SMILES): CCOc1cc2ncc(C#N)c(Nc3ccc(OCCn4ccc(C)n4)c(Cl)c3)c2cc1NC(=O)CCCN(C)C [Example 64]
- IC50 (MST1; [1]): 0.1 to 1 µM

Structure (SMILES): CCOc1cc2ncc(C#N)c(Nc3ccc(OCc4ccc5c(n4)OCCC5)c(Cl)c3)c2cc1NC(=O)CCCN(C)C [Example 59]
- IC50 (MST1; [1]): 1 to 10 µM

Structure (SMILES): CCOc1cc2ncc(C#N)c(Nc3ccc(OCc4ccc(C(=O)OC)cn4)c(Cl)c3)c2cc1NC(=O)CCCN(C)C [Example 58]
- IC50 (MST1; [1]): 0.1 to 1 µM

Structure (SMILES): CCOc1cc2ncc(C#N)c(Nc3ccc(OCCc4c(C)noc4C)c(Cl)c3)c2cc1NC(=O)CCCN(C)C [Example 66]
- IC50 (MST1; [1]): 0.1 to 1 µM

Structure (SMILES): CCOc1ccc(COc2ccc(Nc3c(C#N)cnc4cc(OCC)c(NC(=O)CCCN(C)C)cc34)cc2Cl)nc1 [Example 57]
- IC50 (MST1; [1]): 0.1 to 1 µM

Structure (SMILES): CCOc1cc2ncc(C#N)c(N(C)c3ccccc3)c2cc1NC(C)=O [Example 116]
- IC50 (MST1; [1]): 1 to 10 µM

Structure (SMILES): CCOc1cc2ncc(C#N)c(Nc3ccc(OCc4ccccn4)c(Cl)c3)c2cc1NC(=O)CC [Example 101]
- IC50 (MST1; [1]): 1 to 10 µM

Structure (SMILES): CCOc1cc2ncc(C#N)c(Nc3ccc(NC(=O)c4ccccc4)c(Cl)c3)c2cc1NC(=O)CCCN(C)C [Example 109, N-(2-chloro-4-(3-cyano-6-(4-(dimethylamino)butanamido)-7-ethoxyquinolin-4-ylamino)phenyl)benzamide]
- IC50 (MST1; [1]): 0.1 to 1 µM

Structure (SMILES): CCOc1cc2ncc(C#N)c(Nc3cccc(C)c3)c2cc1NC(C)=O [Example 130]
- IC50 (MST1; [1]): 1 to 10 µM

Structure (SMILES): CCOc1cc2ncc(C#N)c(Nc3ccc(OCc4ncccc4-c4ccccc4)c(Cl)c3)c2cc1NC(=O)CCCN(C)C [Example 72]
- IC50 (MST1; [1]): 0.1 to 1 µM

Structure (SMILES): CCOc1cc2ncc(C#N)c(Nc3ccc(OCc4ccccc4)c(Cl)c3)c2cc1NC(=O)CCCN(C)C [Example 46]
- IC50 (MST1; [1]): 0.1 to 1 µM

Structure (SMILES): CCOc1cc2ncc(C#N)c(Nc3ccc(OCc4cccnn4)c(Cl)c3)c2cc1NC(=O)CCCN(C)C [Example 68]
- IC50 (MST1; [1]): 0.1 to 1 µM

Structure (SMILES): CCOc1cc2ncc(C#N)c(Nc3ccc(OC)c(Cl)c3)c2cc1NC(=O)CCCN(C)C [Example 138]
- IC50 (MST1; [1]): 1 to 10 µM

Structure (SMILES): CCOc1cc2ncc(C#N)c(Nc3ccc(OCc4ccncc4)c(Cl)c3)c2cc1NC(=O)CCCN(C)C [Example 50]
- IC50 (MST1; [1]): 1 to 10 µM

Structure (SMILES): CCOc1cc2ncnc(Nc3ccc(OCc4ncccc4C)cc3Cl)c2cc1NC(=O)CCCN(C)C [Example 146, N-(4-(2-chloro-4-((3-methylpyridin-2-yl)methoxy)phenylamino)-7-ethoxyquinazolin-6-yl)-4-(dimethylamino)butanamide]
- IC50 (MST1; [1]): 1 to 10 µM

Structure (SMILES): CCOc1cc2ncc(C#N)c(Nc3ccc(OCc4cc(C(F)(F)F)ccn4)c(Cl)c3)c2cc1NC(=O)CCCN(C)C [Example 55]
- IC50 (MST1; [1]): 0.1 to 1 µM

Structure (SMILES): CCOc1cc2ncc(C#N)c(Nc3ccc(NC(C)c4ccccc4)c(Cl)c3)c2cc1NC(=O)CCCN(C)C (stereo not shown) [Example 114]
- IC50 (MST1; [1]): 1 to 10 µM

Structure (SMILES): CCOc1cc2ncc(C#N)c(Nc3ccc(OCc4nc(C(C)C)no4)c(Cl)c3)c2cc1NC(=O)CCCN(C)C [Example 70]
- IC50 (MST1; [1]): 0.1 to 1 µM

Structure (SMILES): CCOc1cc2ncc(C#N)c(Nc3ccc(OCc4ccccn4)c(Cl)c3)c2cc1NC(=O)CCN(C)C [Example 96]
- IC50 (MST1; [1]): < 0.1 µM

Structure (SMILES): CCOc1cc2ncc(C#N)c(Nc3ccc(OCc4cocn4)c(Cl)c3)c2cc1NC(=O)CCCN(C)C [Example 69]
- IC50 (MST1; [1]): 0.1 to 1 µM

Structure (SMILES): CCOc1cc2ncc(C#N)c(Nc3ccccc3F)c2cc1NC(C)=O [Example 118]
- IC50 (MST1; [1]): 0.1 to 1 µM

Structure (SMILES): CCOc1cc2ncc(C#N)c(Nc3ccc(OCc4cc5ncccc5o4)c(Cl)c3)c2cc1NC(=O)CCCN(C)C [Example 71]
- IC50 (MST1; [1]): 0.1 to 1 µM

Structure (SMILES): CCOc1cc2ncc(C#N)c(Nc3ccc(C)cc3)c2cc1NC(C)=O [Example 120]
- IC50 (MST1; [1]): 0.1 to 1 µM

Structure (SMILES): CCOc1cc2ncc(C#N)c(Nc3ccc(NC(C)(C)c4ccccn4)c(Cl)c3)c2cc1NC(=O)CCCN(C)C [Example 113]
- IC50 (MST1; [1]): 1 to 10 µM

Structure (SMILES): CCOc1cc2ncc(C#N)c(Nc3ccc(OCc4cccnc4)cc3)c2cc1NC(=O)CCCN(C)C [Example 51]
- IC50 (MST1; [1]): 1 to 10 µM

Structure (SMILES): CCOc1cc2ncc(C#N)c(Nc3ccc(OCc4ccccn4)cc3)c2cc1NC(=O)CCCN(C)C [Example 47]
- IC50 (MST1; [1]): 0.1 to 1 µM

Structure (SMILES): CCOc1cc2ncc(C#N)c(Nc3ccc(OCc4cccnc4)c(Cl)c3)c2cc1NC(=O)CCCN(C)C [Example 49]
- IC50 (MST1; [1]): 1 to 10 µM

Structure (SMILES): CCOc1cc2ncc(C#N)c(Nc3ccc(OCc4cc(-c5ccc(C)cc5)on4)c(Cl)c3)c2cc1NC(=O)CCCN(C)C [Example 73]
- IC50 (MST1; [1]): 0.1 to 1 µM

Structure (SMILES): CCOc1cc2ncc(C#N)c(Nc3ccc(OCc4ccccn4)c(Cl)c3)c2cc1NC(=O)CCCN1CCN(C)CC1 [Example 98]
- IC50 (MST1; [1]): < 0.1 µM

Structure (SMILES): CCOc1cc2ncc(C#N)c(Nc3ccc(OCc4ccc(C(F)(F)F)cn4)c(Cl)c3)c2cc1NC(=O)CCCN(C)C [Example 53]
- IC50 (MST1; [1]): 0.1 to 1 µM

Structure (SMILES): CCOc1cc2ncc(C#N)c(Nc3ccc(C#N)cc3)c2cc1NC(C)=O [Example 129]
- IC50 (MST1; [1]): 1 to 10 µM

Structure (SMILES): CCOc1cc2ncc(C#N)c(Nc3cccc(Cl)c3)c2cc1NC(=O)CCCN(C)C [Example 137, N-(4-(3-chlorophenylamino)-3-cyano-7-ethoxyquinolin-6-yl)-4-(dimethylamino)butanamide]
- IC50 (MST1; [1]): 1 to 10 µM

Structure (SMILES): CCOc1cc2ncc(C#N)c(Nc3ccc(OCCCn4cncn4)c(Cl)c3)c2cc1NC(=O)CCCN(C)C [Example 61]
- IC50 (MST1; [1]): 1 to 10 µM

Structure (SMILES): CCOc1cc2ncc(C#N)c(Nc3cccc(OC)c3)c2cc1NC(C)=O [Example 131]
- IC50 (MST1; [1]): 0.1 to 1 µM

Structure (SMILES): CCOc1cc2ncc(C#N)c(Nc3cccc(S(C)(=O)=O)c3)c2cc1NC(C)=O [Example 134]
- IC50 (MST1; [1]): 1 to 10 µM
